Where “and” joins values, the source holds several entries; their conditions need not be identical. Equal entries are not always repeated.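 Tested at 5 concentrations; 48 h exposure; 96-well plates; endpoints linearly interpolated, else capped at highest concentration. GI50: concentration for 50% inhibition of growth. TGI is the concentration that stops growth completely.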

Common to all, as to test: NCI tumour cell line growth inhibition, 48 h
Assay [1] has as its system CCRF-CEM leukemia.
Assay [2] deals with DLD-1 colon.
Assay [3] has as its system DMS 273 small cell lung.
In assay [4] the test system is HCT-15 colon.
Assay [5] deals with HOP-62 NSCLC.
Assay [6] has as its system MALME-3M melanoma.
Assay [7] relates to MCF7 breast.
The subject of assay [8] is PC-3 prostate.
For assay [9], the system named is U251 CNS.
The subject of assay [10] is UACC-257 melanoma.

For `Nc1nc(OCc2ccccc2)c2[nH]cnc2n1`, the GI50 in [1] was 39.5 µM; in assay [4], 25.5 µM and 21.7 µM; in assay [5] it was 42 µM and 23.5 µM; in [6] it was 28 µM and 23.3 µM; in assay [7] it was 41.9 µM and 41.8 µM; in assay [8] it was 53.7 µM. For the same compound, the GI50 in assay [9] is 37.9 µM and 35.9 µM; in assay [10], 39.8 µM and 157 µM. In addition, the TGI is 319 µM and 274 µM in [1]; 400 µM in [2]; 400 µM in assay [3]; 400 µM and 222 µM in assay [4]; 209 µM and 70.9 µM in assay [5]; 264 µM and 136 µM in [6]. The TGI is 0.355 mM in [7]; 0.628 mM in [8]; 400 µM and 204 µM in assay [9]; 400 µM and 736 µM in assay [10].
Turning to `NC(=O)c1csc(C2OC(CO)C(O)C2O)n1` (centres undefined), the GI50 in assay [1] is 15.6 µM; in [4], 4.97 µM; in [5], 44.7 µM; in [7], 76.3 µM; in assay [8], 29.5 µM; in assay [9], 45.5 µM. Further, the TGI was over 7200 µM in assay [2]; 9960 µM in [3]; 1440 µM in [4]; 3110 µM in assay [5]; over 7980 µM in [6]; 7.34 mM in [7]. Besides, the TGI was 2.56 mM in assay [8], 2540 µM in [9] and over 10000 µM in assay [10].
Regarding `COC(=O)C1CC2CC(=NNC(N)=O)CC2C1` (centres undefined), the TGI in assay [1], in assay [2], in [3], in assay [4], in assay [5] and in [6] was over 100 µM each time. Further, the TGI in assay [9] and in assay [10] was over 100 µM throughout.
As for `O=C1NC(=O)C2C(=O)NC(=O)C1C2c1c(Cl)cccc1Cl` (centres undefined), the TGI is over 69.6 µM in assay [1]; over 60.8 µM in [2]; over 57.5 µM in assay [3]; over 100 µM in assay [4]; over 100 µM in assay [5]; over 100 µM in assay [6]. Besides, the TGI in assay [9] and in assay [10] was over 100 µM each time.

Source of the values: PubChem BioAssay (NCI).
